Data: PMC4830977 (Scientific Reports, 2016)
“And” between values parts separate entries of the source, which are not always exact repeats. Identical values can stand only once. Like-named read-outs stand apart in the source and are kept apart here.

Columns and labels:
α2δ-1-MIDAS^AAA = test: [3H]-gabapentin saturation binding to membranes of tsA-201 cells expressing α2δ-1 MIDAS mutant
Protocol: Cell membrane and DRM fractions were prepared essentially as described previously. Cultured tsA-201 cells were washed twice in ice-cold PBS and then left in ice-cold PBS containing Complete protease inhibitor cocktail (Roche, concentration according to manufacturer’s instructions) for 5 min. Cells were gently washed off the bottom of the flask and pelleted at 2000 × g for 10 min. Pellets were kept on ice if used immediately, or stored at −20 °C until required. For brain membranes, adult male Sprague Dawley rats (200–250 g) were euthanised by CO2 inhalation and then decapitated. The whole brain minus cerebellum was homogenised on ice in a buffer containing the following (in mM): 20 HEPES, pH 7.4, 2 EDTA, EDTA-free protease inhibitor cocktail (Roche, concentration according to manufacturer’s instructions).
For membrane preparation, pellets obtained from cell harvesting, resuspended in ice-cold 10 mM Hepes plus protease inhibitors (pH 7.4), or brain homogenate, were mechanically lysed by 10–15 passages through a 23 gauge needle. Cell debris and non-lysed cells were pelleted for 15 min at 1,000 × g. The supernatant obtained was transferred to a 30 ml thick-walled ultracentrifuge tube (Beckman-Coulter). Membranes were pelleted in an ultracentrifuge (Beckman-Coulter) for 90 min at 60,000 × g, and resuspended as required. Aliquots were used to determine the protein concentration.

TSP4-EGF = test: 3H-gabapentin binding to TSP4-EGF alone (control); settings: control experiment, data not shown
TSP4 = test: 3H-gabapentin binding to membranes of tsA-201 cells expressing only TSP4 (control); settings: 1 experiment in triplicate
Protocol: Each experiment was carried out in triplicate, and the mean value used for subsequent analysis.
Harvesting of the samples was performed by filtration through GF/B filter papers (Whatman, GE Healthcare) pre-soaked in 0.3% polyethyleneimine solution, in order to reduce non-specific binding to the filter paper. The samples were transferred to the filters by washing the tubes three times with Tris-HCl (100 mM, pH 7.4, Sigma 7–9) using a Brandel Harvester (Brandel). The GF/B filter papers were then cut out and transferred to vials containing 5 ml of scintillant (Liquid scintillant cocktail, Beckman Coulter). Samples were equilibrated for 18 h and then the activity was counted in triplicate in a scintillation counter (Beckman Coulter) for 10 min per sample.

[1] = test system: synaptogenic domain of TSP2 and α2δ-1; settings: co-expressed in HEK-293 cells; cited from earlier work
[2] = α2δ-1-MIDAS^AAA + TSP4 with EDTA, n = 3 (Fig. 1F)
[3] = α2δ-1-MIDAS^AAA + TSP4 with Mg2+, n = 3 (Fig. 1F)
[4] = α2δ-1-MIDAS^AAA with EDTA, n = 3 (Fig. 1F)

Compound	nH (α2δ-1-MIDAS^AAA)	mean Bmax (α2δ-1-MIDAS^AAA; [2])	nH (α2δ-1-MIDAS^AAA; [2])	mean Bmax (α2δ-1-MIDAS^AAA; [3])	nH (α2δ-1-MIDAS^AAA; [3])	mean Bmax (α2δ-1-MIDAS^AAA; [4])	nH (α2δ-1-MIDAS^AAA; [4])	Kd (α2δ-1-MIDAS^AAA; α2δ-1-MIDAS^AAA with Mg2+, n = 2 (Fig. 1F), read-out: KD, individual values)	mean Bmax (α2δ-1-MIDAS^AAA; α2δ-1-MIDAS^AAA with Mg2+, n = 2, individual values 0.53, 0.38 (Fig. 1F))	binding affinity compared with WT α2δ-1 (α2δ-1-MIDAS^AAA; α2δ-1 MIDAS^AAA (Fig. 1F))	binding to TSP4-EGF alone (TSP4-EGF)	binding to TSP4 alone (TSP4)	effect on co-immunoprecipitation between synaptogenic domain of TSP2 and α2δ-1 [1]
NCC1(CC(=O)O)CCCCC1 [[^3H]-gabapentin]	1.43	0.24 ± 0.02 pmol/mg protein	1.49 ± 0.10	0.37 ± 0.06 pmol/mg protein	1.45 ± 0.05	0.68 ± 0.12 pmol/mg protein	1.33 ± 0.07	117 nM and 190 nM	0.46 pmol/mg protein	affinity similar to WT α2δ-1	no ^3H-gabapentin binding	no direct binding	–
NCC1(CC(=O)O)CCCCC1 [gabapentin]	–	–	–	–	–	–	–	–	–	–	–	–	inhibit co-immunoprecipitation
